The values below come from article PMC12206033, “Selective inhibition of TRPV3 channel by natural rosmarinic acid and its analogs for alleviation of skin lesions through downregulation of NF-κB pathway” (The Journal of Biological Chemistry, 2025).

Where two headings read alike, the source gives them in different places.

In assay [1] the target is T1, hTRPV3 (Homo sapiens, UniProt Q8NET8).
T1 construct: expressed in transfected cells; host or cells: HEK293T
T1 sequence (Q8NET8 1-790): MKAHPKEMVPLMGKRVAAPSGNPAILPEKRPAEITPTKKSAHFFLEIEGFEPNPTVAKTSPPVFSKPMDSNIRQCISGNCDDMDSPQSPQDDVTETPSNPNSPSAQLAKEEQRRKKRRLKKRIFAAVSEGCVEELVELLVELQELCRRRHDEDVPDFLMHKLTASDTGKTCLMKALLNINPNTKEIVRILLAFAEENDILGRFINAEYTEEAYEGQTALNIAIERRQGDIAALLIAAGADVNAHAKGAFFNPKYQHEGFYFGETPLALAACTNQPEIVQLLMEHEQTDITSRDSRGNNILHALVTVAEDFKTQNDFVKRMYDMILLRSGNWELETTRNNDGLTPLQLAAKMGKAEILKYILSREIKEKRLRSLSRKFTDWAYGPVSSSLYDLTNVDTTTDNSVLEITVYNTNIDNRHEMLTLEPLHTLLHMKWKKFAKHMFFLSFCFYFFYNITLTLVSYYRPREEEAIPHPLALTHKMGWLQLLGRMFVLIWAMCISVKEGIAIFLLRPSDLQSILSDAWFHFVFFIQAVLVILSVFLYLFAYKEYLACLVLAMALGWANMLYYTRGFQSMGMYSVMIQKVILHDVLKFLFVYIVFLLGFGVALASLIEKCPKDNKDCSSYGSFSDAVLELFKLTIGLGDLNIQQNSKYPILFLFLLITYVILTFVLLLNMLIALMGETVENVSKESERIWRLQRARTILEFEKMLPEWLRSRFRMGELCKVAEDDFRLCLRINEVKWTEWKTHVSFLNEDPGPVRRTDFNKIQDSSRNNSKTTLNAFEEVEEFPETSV
As to the kind of experiment: whole-cell patch-clamp of hTRPV3 currents in HEK293T cells activated by 2-APB. Particulars: for inhibition at 50 µM: agonist 2-APB 50 μM. Format: cell-based. On the procedure: HEK293T cell line was obtained from the Cell Resource Center, Peking Union Medical College. HEK293T cells were maintained in Dulbecco’s modified Eagle’s medium (DMEM, Gibco) supplemented with 10% fetal bovine serum at 37 °C with 5% CO2. HEK293T cells were seeded onto glass coverslips 1 day in advance and transiently transfected with […] complementary deoxyribonucleic acids of human TRPV3 (hTRPV3, accession number NM_145068.4), hTRPV1 (accession number NM_080704.3), mTRPV2 (accession number NM_011706.2), hTRPV4 (accession number NM_021625.5), hTRPA1 (accession number NM_007332.3), and hTRPM8 (accession number NM_024080.5) through Lipofectamine 2000 (Invitrogen) following the manufacture’s protocol. The next day, determine the plasmid transfection status by observing green fluorescence based on expression of enhanced GFP as an indicator. All WT or mutant hTRPV3 complementary deoxyribonucleic acid plasmids were confirmed by DNA sequencing. When conducting experiments on HEK293T cells transfected with G573S point mutant TRPV3 plasmid, we replaced culture medium with or without compounds after 4 h of transfection and then observed green fluorescence of HEK293T cell after 10 h. As for the relative fluorescence intensity, we convert the image to 8 bit grayscale using ImageJ (Https://imagej.net/software/fiji/downloads) and set an appropriate threshold value to reduce background noise and enhance the image contrast.
All patch-clamp recordings were conducted 16 to 24 h after transfection using an EPC10 amplifier powered by PatchMaster software (HEKA) (https://www.heka.com/downloads/downloads_main.html#down_patchmaster) at room temperature. The borosilicate glass pipettes were pulled using a DMZ universal electrode puller (Zeitz-Instruments GmbH) to achieve the resistances of three to 5 MΩ (for whole-cell recordings) or five to 9 MΩ (for inside-out patch recordings). Currents were recorded at a potential ramp from −100 mV to +100 mV for 1000 ms with 1000-ms intervals (for whole-cell recordings) or a persistent potential of −60 mV (inside-out patch recordings). Both pipette solution and bath solution contained (in mM): 130 NaCl, 3 Hepes, and 0.2 EDTA (pH = 7.2–7.4). All recording data were analyzed using Igor Pro (Wave-metrics) (https://www.wavemetrics.com/order/order_igordownloads.htm) and Origin 8.6 (Origin Lab) (https://www.originlab.com/doc/zh/Quick-Help/Download-Installer).
For orientation: The patch-clamp technique gives a direct electrical read-out from membranes.

For assay [2], the system named is Car-induced ear swelling and dorsal skin inflammation in mice. The assay is described as follows: mouse model of ear swelling and dorsal skin inflammation induced by skin sensitizer Car (3%). The format is in vivo. The source says:
Adult C57BL/6J mice (aged 6–8 weeks, weighing 20 ± 2 g) were purchased from the Beijing Vital River Laboratory Animal Technology Co. Ltd. TRPV3-KO mice were purchased from Cyagen Biosciences Inc. All mice were housed in plastic cages with natural poplar wood bedding materials, accommodating three to five mice per cage. The housing environment was maintained at a controlled room temperature of (23 ± 2) °C and humidity of (50 ± 5) %, with 12-h light/dark cycle (lights on at 7:00 AM and off at 7:00 PM). Mice had free access to food and water. All animal test protocols were approved by the Institutional Animal Care and Use Committee of Qingdao University Health Science Center and were conducted in accordance with institutional and national guidelines for the use and care of animals in experiments. All mice were anesthetized with isoflurane (1%–1.5%) using an isoflurane gas anesthesia device and were euthanized under anesthesia.
Skin sensitizer Car was dissolved in saline solution containing 30% ethanol. The dorsal skin or ear of mice was swabbed with 3% Car for four consecutive days. To investigate the effects of ROSA, it was diluted to concentration of 0.1/1/10 mM with saline and topically applied on the ear and dorsal skin once a day for 4 days. The control group only received swabs with the solvent.

For the compound `O=C(/C=C/c1ccc(O)c(O)c1)O[C@H](Cc1ccc(O)c(O)c1)C(=O)O` [ROSA, rosmarinic acid], half-maximal inhibition in assay [1] (IC50) required 12.4 ± 4.2 µM. Also, the inhibition at 50 µM in assay [1] (HEK-293T, ROSA 50 μM, Fig. 2G, read-out: inhibition of TRPV3 currents) was ~74.3%; in assay [1] (HEK-293T, compound 50 μM, Fig. 3I, n = 4-5, read-out: inhibition of hTRPV3 currents), ~75.3%. In assay [1] (HEK-293T, ROSA 100 μM, 2-APB, WT, read-out: inhibition of macroscopic WT hTRPV3 currents), the inhibition at 100 µM is 87%. For the same compound, in assay [2] (topical ROSA 10 mM, Trpv3 KO mice, Car), the “ear thickness in Trpv3 KO mice” value is recorded as “no further reduction of ear thickness”. Further, the “ear and dorsal skin inflammation” value in assay [2] (topical ROSA 0.1, 1.0 and 10 mM once a day for 4 days, 3% Car, compared to Car alone) is “significantly alleviated the ear and dorsal skin inflammation”. Besides, in assay [2] (topical ROSA 0.1, 1.0 and 10 mM, 3% Car, compared to Car alone), the ear swelling scores result is “reduced the ear swelling scores in both dose- and time-dependent manner”. Further, the ear thickness entry in assay [2] (topical ROSA, 3% Car, compared to Car alone) was “reduction in ear thickness was also evident, starting on the third day”. Moreover, the “dermatitis scores, dorsal skin” value in assay [2] (topical ROSA, 3% Car, fourth day) was “significant difference in dermatitis scores between the ROSA group and the Car group”.

The term IC50 denotes the concentration at which inhibition is half-maximal. As usually defined, the inhibition is the percentage by which the read-out fell short of the control.
